{"source": "patent US20240138411A1", "about": "“METHOD OF […] OF SUGARCANE” (CORTEVA AGRISCIENCE LLC, priority 2021, published 2024)", "system": "sugarcane", "assay": "Sugarcane flowering inhibition field trials, floral induction rated on UFSCar scale", "format": "in vivo", "settings": "475 g ai/ha", "protocol": "In order to explore the activity of florpyrauxifen as flowering inhibitor in sugarcane, field studies were carried out. Florpyrauxifen-benzyl was tested at rates from 2 to 20 grams active ingredient per hectare (g ai/ha) and compared to Ethrel® 720 (Bayer), the standard treatment. The flowering inhibition effect was assessed by checking the floral induction in sugarcane through the percentage scale recommended by UFSCar (Federal University of Sao Carlos, Sao Paulo, Brazil).\nFour trials were carried out in sugarcane where florpyrauxifen-benzyl (Rinskor®), applied at a rate of 2 to 20 g ai/ha, was compared to ethephon (Ethrel® 720) applied at a rate of 475 g ai/ha. Control plots of untreated sugarcane were also evaluated. Rinskor® and Ethrel® 720 were diluted in water and a single application for each study (backpack sprayer) was performed delivering 50 L of spray solution per ha at the reproductive stage of sugarcane and at a maximum 150 days before harvest. The activity of florpyrauxifen-benzyl as a flowering inhibitor was measured via assessments (Scale of flowering inhibition—see chart 1) performed at 0, 14, 30, 45, 60, 75, 90, 120, 150 days after application, or up to harvest time. The assessments were measured in sugarcane stems, rating the flowering induction according to the UFSCar scale shown below. Significance of treatment effect was evaluated with F-approximate test (α=0.1) and least square means from different treatments were compared with Tukey's test.", "data": [{"smiles": "O=P(O)(O)CCCl", "note": "[ETHREL720, 2-chloroethylphosphonic acid]", "values": [{"measurement": "% Referring to Scale", "setting": "Table 1, 75 DAA", "value": 12.4, "unit": "%"}, {"measurement": "Frequency 1/1 (0%)", "setting": "Table 1, 75 DAA", "value": 17.5, "unit": "%"}, {"measurement": "Frequency 2/1 (15%)", "setting": "Table 1, 75 DAA", "value": 82.5, "unit": "%"}, {"measurement": "Frequency 3/1 (30%)", "setting": "Table 1, 75 DAA", "value": 0.0, "unit": "%"}, {"measurement": "Frequency 4/1 (50%)", "setting": "Table 1, 75 DAA", "value": 0.0, "unit": "%"}, {"measurement": "Frequency 4/2 (80%)", "setting": "Table 1, 75 DAA", "value": 0.0, "unit": "%"}, {"measurement": "Frequency 4/3 (90%)", "setting": "Table 1, 75 DAA", "value": 0.0, "unit": "%"}, {"measurement": "Frequency 4/4 (100%)", "setting": "Table 1, 75 DAA", "value": 0.0, "unit": "%"}, {"measurement": "% Referring to Scale", "setting": "Table 1, 90 DAA", "value": 13.1, "unit": "%"}, {"measurement": "Frequency 1/1 (0%)", "setting": "Table 1, 90 DAA", "value": 20.0, "unit": "%"}, {"measurement": "Frequency 2/1 (15%)", "setting": "Table 1, 90 DAA", "value": 72.5, "unit": "%"}, {"measurement": "Frequency 3/1 (30%)", "setting": "Table 1, 90 DAA", "value": 7.5, "unit": "%"}, {"measurement": "Frequency 4/1 (50%)", "setting": "Table 1, 90 DAA", "value": 0.0, "unit": "%"}, {"measurement": "Frequency 4/2 (80%)", "setting": "Table 1, 90 DAA", "value": 0.0, "unit": "%"}, {"measurement": "Frequency 4/3 (90%)", "setting": "Table 1, 90 DAA", "value": 0.0, "unit": "%"}, {"measurement": "Frequency 4/4 (100%)", "setting": "Table 1, 90 DAA", "value": 0.0, "unit": "%"}, {"measurement": "% Referring to Scale", "setting": "Table 1, 120 DAA", "value": 18.1, "unit": "%"}, {"measurement": "Frequency 1/1 (0%)", "setting": "Table 1, 120 DAA", "value": 0.0, "unit": "%"}, {"measurement": "Frequency 2/1 (15%)", "setting": "Table 1, 120 DAA", "value": 87.5, "unit": "%"}, {"measurement": "Frequency 3/1 (30%)", "setting": "Table 1, 120 DAA", "value": 10.0, "unit": "%"}, {"measurement": "Frequency 4/1 (50%)", "setting": "Table 1, 120 DAA", "value": 0.0, "unit": "%"}, {"measurement": "Frequency 4/2 (80%)", "setting": "Table 1, 120 DAA", "value": 2.5, "unit": "%"}, {"measurement": "Frequency 4/3 (90%)", "setting": "Table 1, 120 DAA", "value": 0.0, "unit": "%"}, {"measurement": "Frequency 4/4 (100%)", "setting": "Table 1, 120 DAA", "value": 0.0, "unit": "%"}, {"measurement": "% Referring to Scale", "setting": "Table 2, 75 DAA", "value": 0.8, "unit": "%"}, {"measurement": "Frequency 1/1 (0%)", "setting": "Table 2, 75 DAA", "value": 95.0, "unit": "%"}, {"measurement": "Frequency 2/1 (15%)", "setting": "Table 2, 75 DAA", "value": 5.0, "unit": "%"}, {"measurement": "Frequency 3/1 (30%)", "setting": "Table 2, 75 DAA", "value": 0.0, "unit": "%"}, {"measurement": "Frequency 4/1 (50%)", "setting": "Table 2, 75 DAA", "value": 0.0, "unit": "%"}, {"measurement": "Frequency 4/2 (80%)", "setting": "Table 2, 75 DAA", "value": 0.0, "unit": "%"}, {"measurement": "Frequency 4/3 (90%)", "setting": "Table 2, 75 DAA", "value": 0.0, "unit": "%"}, {"measurement": "Frequency 4/4 (100%)", "setting": "Table 2, 75 DAA", "value": 0.0, "unit": "%"}, {"measurement": "% Referring to Scale", "setting": "Table 2, 90 DAA", "value": 51.8, "unit": "%"}, {"measurement": "Frequency 1/1 (0%)", "setting": "Table 2, 90 DAA", "value": 0.0, "unit": "%"}, {"measurement": "Frequency 2/1 (15%)", "setting": "Table 2, 90 DAA", "value": 0.0, "unit": "%"}, {"measurement": "Frequency 3/1 (30%)", "setting": "Table 2, 90 DAA", "value": 25.0, "unit": "%"}, {"measurement": "Frequency 4/1 (50%)", "setting": "Table 2, 90 DAA", "value": 52.5, "unit": "%"}, {"measurement": "Frequency 4/2 (80%)", "setting": "Table 2, 90 DAA", "value": 22.5, "unit": "%"}, {"measurement": "Frequency 4/3 (90%)", "setting": "Table 2, 90 DAA", "value": 0.0, "unit": "%"}, {"measurement": "Frequency 4/4 (100%)", "setting": "Table 2, 90 DAA", "value": 0.0, "unit": "%"}, {"measurement": "% Referring to Scale", "setting": "Table 2, 120 DAA", "value": 98.0, "unit": "%"}, {"measurement": "Frequency 1/1 (0%)", "setting": "Table 2, 120 DAA", "value": 0.0, "unit": "%"}, {"measurement": "Frequency 2/1 (15%)", "setting": "Table 2, 120 DAA", "value": 0.0, "unit": "%"}, {"measurement": "Frequency 3/1 (30%)", "setting": "Table 2, 120 DAA", "value": 0.0, "unit": "%"}, {"measurement": "Frequency 4/1 (50%)", "setting": "Table 2, 120 DAA", "value": 0.0, "unit": "%"}, {"measurement": "Frequency 4/2 (80%)", "setting": "Table 2, 120 DAA", "value": 2.5, "unit": "%"}, {"measurement": "Frequency 4/3 (90%)", "setting": "Table 2, 120 DAA", "value": 15.0, "unit": "%"}, {"measurement": "Frequency 4/4 (100%)", "setting": "Table 2, 120 DAA", "value": 82.5, "unit": "%"}, {"measurement": "% Referring to Scale", "setting": "Table 3, 90 DAA", "value": 0.0, "unit": "%"}, {"measurement": "Frequency 1/1 (0%)", "setting": "Table 3, 90 DAA", "value": 100.0, "unit": "%"}, {"measurement": "Frequency 2/1 (15%)", "setting": "Table 3, 90 DAA", "value": 0.0, "unit": "%"}, {"measurement": "Frequency 3/1 (30%)", "setting": "Table 3, 90 DAA", "value": 0.0, "unit": "%"}, {"measurement": "Frequency 4/1 (50%)", "setting": "Table 3, 90 DAA", "value": 0.0, "unit": "%"}, {"measurement": "Frequency 4/2 (80%)", "setting": "Table 3, 90 DAA", "value": 0.0, "unit": "%"}, {"measurement": "Frequency 4/3 (90%)", "setting": "Table 3, 90 DAA", "value": 0.0, "unit": "%"}, {"measurement": "Frequency 4/4 (100%)", "setting": "Table 3, 90 DAA", "value": 0.0, "unit": "%"}, {"measurement": "% Referring to Scale", "setting": "Table 3, 120 DAA", "value": 1.5, "unit": "%"}, {"measurement": "Frequency 1/1 (0%)", "setting": "Table 3, 120 DAA", "value": 90.0, "unit": "%"}, {"measurement": "Frequency 2/1 (15%)", "setting": "Table 3, 120 DAA", "value": 10.0, "unit": "%"}, {"measurement": "Frequency 3/1 (30%)", "setting": "Table 3, 120 DAA", "value": 0.0, "unit": "%"}, {"measurement": "Frequency 4/1 (50%)", "setting": "Table 3, 120 DAA", "value": 0.0, "unit": "%"}, {"measurement": "Frequency 4/2 (80%)", "setting": "Table 3, 120 DAA", "value": 0.0, "unit": "%"}, {"measurement": "Frequency 4/3 (90%)", "setting": "Table 3, 120 DAA", "value": 0.0, "unit": "%"}, {"measurement": "Frequency 4/4 (100%)", "setting": "Table 3, 120 DAA", "value": 0.0, "unit": "%"}, {"measurement": "% Referring to Scale", "setting": "Table 3, 150 DAA", "value": 0.0, "unit": "%"}, {"measurement": "Frequency 1/1 (0%)", "setting": "Table 3, 150 DAA", "value": 100.0, "unit": "%"}, {"measurement": "Frequency 2/1 (15%)", "setting": "Table 3, 150 DAA", "value": 0.0, "unit": "%"}, {"measurement": "Frequency 3/1 (30%)", "setting": "Table 3, 150 DAA", "value": 0.0, "unit": "%"}, {"measurement": "Frequency 4/1 (50%)", "setting": "Table 3, 150 DAA", "value": 0.0, "unit": "%"}, {"measurement": "Frequency 4/2 (80%)", "setting": "Table 3, 150 DAA", "value": 0.0, "unit": "%"}, {"measurement": "Frequency 4/3 (90%)", "setting": "Table 3, 150 DAA", "value": 0.0, "unit": "%"}, {"measurement": "Frequency 4/4 (100%)", "setting": "Table 3, 150 DAA", "value": 0.0, "unit": "%"}, {"measurement": "% Referring to Scale", "setting": "Table 4, 90 DAA", "value": 4.9, "unit": "%"}, {"measurement": "Frequency 1/1 (0%)", "setting": "Table 4, 90 DAA", "value": 67.5, "unit": "%"}, {"measurement": "Frequency 2/1 (15%)", "setting": "Table 4, 90 DAA", "value": 32.5, "unit": "%"}, {"measurement": "Frequency 3/1 (30%)", "setting": "Table 4, 90 DAA", "value": 0.0, "unit": "%"}, {"measurement": "Frequency 4/1 (50%)", "setting": "Table 4, 90 DAA", "value": 0.0, "unit": "%"}, {"measurement": "Frequency 4/2 (80%)", "setting": "Table 4, 90 DAA", "value": 0.0, "unit": "%"}, {"measurement": "Frequency 4/3 (90%)", "setting": "Table 4, 90 DAA", "value": 0.0, "unit": "%"}, {"measurement": "Frequency 4/4 (100%)", "setting": "Table 4, 90 DAA", "value": 0.0, "unit": "%"}]}]}
